US20070232615A1, “Chemical Compounds” (priority 2004, published 2007)

The compounds below were run on HIV (assay: HOS HIV infectivity assay (Table 2, strain not given)). Settings: Human immunodeficiency virus 1, read-out: Activity Level.
Type: cell-based
Procedure: HOS HIV-1 Infectivity Assay
Compounds were profiled against two HIV-1 viruses, the M-tropic (CCR5 utilizing) Ba-L strain and the T-tropic (CXCR4 utilizing) IIIB strain. Both viruses were propagated in human peripheral blood lymphocytes. Compounds were tested for there ability to block infection of the HOS cell line (expressing hCXCR4/hCCR5/hCD4/pHIV-LTR-luciferase) by either HIV-1 Ba-L or HIV-1 IIIB. Compound cytotoxicity was also examined in the absence of virus addition.
HOS HIV-1 Infectivity Assay Format
HOS cells (expressing hCXCR4/hCCR5/hCD4/pHIV-LTR-luciferase) were harvested and diluted in Dulbeccos modified Eagles media supplemented with 2% FCS and non-essential amino acid to a concentration of 60,000 cells/ml. The cells were plated into 96-well plates (100 ul per well) and the plates were placed in a tissue culture incubator (37° C.; 5% CO2/95% air) for a period of 24 h.
Subsequently, 50 ul of the desired drug solution (4 times the final concentration) was added to each well and the plates were returned to the tissue culture incubator (37° C.; 5% CO2/95% air) for 1 h. Following this incubation 50 ul of diluted virus was added to each well (approximately 2 million RLU per well of virus). The plates were returned to the tissue culture incubator (37° C.; 5% CO2/95% air) and were incubated for a further 96 h.
Following this incubation the endpoint for the virally infected cultures was quantified following addition of Steady-Glo Luciferase assay system reagent (Promega, Madison, Wis.). Cell viability or non-infected cultures was measured using a CellTiter-Glo luminescent cell viability assay system (Promega, Madison, Wis.). All luminescent readouts are performed on a Topcount luminescence detector (Packard, Meridien, Conn.).
`COc1ccc([C@H](C)N(Cc2cn3c(N4CC[C@@H](N(C)C)C4)cccc3n2)[C@H]2CCCc3cccnc32)cc1` [Example 95, (8S)—N-({5-[(3R)-3-(Dimethylamino)-1-pyrrolidinyl]imidazo[1,2-a]pyridin-2-yl}methyl)-N-{(1S)-1-[4-(methyloxy)phenyl]ethyl}-5,6,7,8-tetrahydro-8-quinolinamine] was tested, and the IC50 was 100 to 500 nM. `CC(C)Cc1ccc(CN(Cc2cn3c(N4CCN(C)CC4)cccc3n2)[C@H]2CCCc3cccnc32)cc1` [Example 77, (8S)—N-{[5-(4-Methyl-1-piperazinyl)imidazo[1,2-a]pyridin-2-yl]methyl}-N-{[4-(2-methylpropyl)phenyl]methyl}-5,6,7,8-tetrahydro-8-quinolinamine] was tested, and the IC50 was < 100 nM. `CC(C)N1CCN(c2cccc3nc(CN(C)[C@H]4CCCc5cccnc54)cn23)CC1` [Example 89, (8S)—N-Methyl-N-({5-[4-(1-methylethyl)-1-piperazinyl]imidazo[1,2-a]pyridin-2-yl}methyl)-5,6,7,8-tetrahydro-8-quinolinamine] was tested, and the IC50 was < 100 nM. With `CCCN(Cc1cn2c(N3CC[C@@H](N(C)C)C3)cccc2n1)[C@H]1CCCc2cccnc21` [Example 97, (8S)—N-({5-[(3R)-3-(Dimethylamino)-1-pyrrolidinyl]imidazo[1,2-a]pyridin-2-yl}methyl)-N-propyl-5,6,7,8-tetrahydro-8-quinolinamine] the IC50 was < 100 nM. With `CN(Cc1cn2c(N3CCCNCC3)cccc2n1)C1CCCc2cccnc21` (stereo not drawn) [Example 30, N-{[5-(Hexahydro-1H-1,4-diazepin-1-yl)imidazo[1,2-a]pyridin-2-yl]methyl}-N-methyl-5,6,7,8-tetrahydro-8-quinolinamine] the IC50 was < 100 nM. In the case of `CCN1CCN(c2cccc3nc(CN(C)[C@H]4CCCc5cccnc54)cn23)CC1` [Example 88, (8S)—N-{[5-(4-Ethyl-1-piperazinyl)imidazo[1,2-a]pyridin-2-yl]methyl}-N-methyl-5,6,7,8-tetrahydro-8-quinolinamine], the IC50 is reported as < 100 nM. In the case of `CN1CCC(N(C)c2cccc3nc(CN(C)C4CCCc5cccnc54)cn23)CC1` (stereo not drawn) [Example 28, N-Methyl-N-({5-[methyl(1-methyl-4-piperidinyl)amino]imidazo[1,2-a]pyridin-2-yl}methyl)-5,6,7,8-tetrahydro-8-quinolinamine], the IC50 is reported as 100 to 500 nM. `CN(C)Cc1cccc(-c2cccc3nc(CN(C)C4CCCc5cccnc54)cn23)c1` (stereo not drawn) [Example 41, N-[(5-{3-[(Dimethylamino)methyl]phenyl}imidazo[1,2-a]pyridin-2-yl)methyl]-N-methyl-5,6,7,8-tetrahydro-8-quinolinamine] showed an IC50 of 100 to 500 nM. For `CN(C)[C@@H]1CCN(c2cccc3nc(CN(CC4CC4)[C@H]4CCCc5cccnc54)cn23)C1` [Example 99, (8S)—N-(Cyclopropylmethyl)-N-({5-[(3R)-3-(dimethylamino)-1-pyrrolidinyl]imidazo[1,2-a]pyridin-2-yl}methyl)-5,6,7,8-tetrahydro-8-quinolinamine], the IC50 was < 100 nM. With `CN(Cc1cn2c(NC(=O)c3ccncc3)cccc2n1)C1CCCc2cccnc21` (stereo not drawn) [Example 45, N-(2-{[Methyl(5,6,7,8-tetrahydro-8-quinolinyl)amino]methyl}imidazo[1,2-a]pyridin-5-yl)-4-pyridinecarboxamide] the IC50 was 500 to 10000 nM. `CN1CCN(c2cccc3nc(CN(Cc4cccc(F)c4)[C@H]4CCCc5cccnc54)cn23)CC1` [Example 61, (8S)—N-[(3-Fluorophenyl)methyl]-N-{[5-(4-methyl-1-piperazinyl)imidazo[1,2-a]pyridin-2-yl]methyl}-5,6,7,8-tetrahydro-8-quinolinamine] was tested, and the IC50 was < 100 nM. `CN(C)C1CCN(c2cccc3nc(CN(C)C4CCCc5cccnc54)cn23)CC1` (stereo not drawn) [Example 38, N-({5-[4-(Dimethylamino)-1-piperidinyl]imidazo[1,2-a]pyridin-2-yl}methyl)-N-methyl-5,6,7,8-tetrahydro-8-quinolinamine] was tested, and the IC50 was < 100 nM.
